Measurements from patent US20250320213A1, “Nitrogen-Containing Heterocyclic Compounds” (Pfizer Inc., priority 2024, published 2025).
pEC50, pIC50: −log10 of the molar value.

Key:
[1] = target: T1, STAT6 (Homo sapiens, UniProt P42226); experiment: STAT6 Reporter Luciferase Assay (IL-13 stimulated HaCaT keratinocyte NanoLuc reporter cells); format: cell-based; conditions: IL-13 stimulated HaCaT STAT6 NanoLuc reporter cells; read-out: Reporter EC50
T1 construct: stably transfected HaCaT keratinocyte cell line, which expresses NanoLuc luciferase reporter gene under the transcriptional control of the STAT6 responsive promoter; endogenous in cells; host or cells: HaCaT keratinocyte reporter cell line (stably transfected with a NanoLuc reporter)
T1 sequence (P42226 1-847): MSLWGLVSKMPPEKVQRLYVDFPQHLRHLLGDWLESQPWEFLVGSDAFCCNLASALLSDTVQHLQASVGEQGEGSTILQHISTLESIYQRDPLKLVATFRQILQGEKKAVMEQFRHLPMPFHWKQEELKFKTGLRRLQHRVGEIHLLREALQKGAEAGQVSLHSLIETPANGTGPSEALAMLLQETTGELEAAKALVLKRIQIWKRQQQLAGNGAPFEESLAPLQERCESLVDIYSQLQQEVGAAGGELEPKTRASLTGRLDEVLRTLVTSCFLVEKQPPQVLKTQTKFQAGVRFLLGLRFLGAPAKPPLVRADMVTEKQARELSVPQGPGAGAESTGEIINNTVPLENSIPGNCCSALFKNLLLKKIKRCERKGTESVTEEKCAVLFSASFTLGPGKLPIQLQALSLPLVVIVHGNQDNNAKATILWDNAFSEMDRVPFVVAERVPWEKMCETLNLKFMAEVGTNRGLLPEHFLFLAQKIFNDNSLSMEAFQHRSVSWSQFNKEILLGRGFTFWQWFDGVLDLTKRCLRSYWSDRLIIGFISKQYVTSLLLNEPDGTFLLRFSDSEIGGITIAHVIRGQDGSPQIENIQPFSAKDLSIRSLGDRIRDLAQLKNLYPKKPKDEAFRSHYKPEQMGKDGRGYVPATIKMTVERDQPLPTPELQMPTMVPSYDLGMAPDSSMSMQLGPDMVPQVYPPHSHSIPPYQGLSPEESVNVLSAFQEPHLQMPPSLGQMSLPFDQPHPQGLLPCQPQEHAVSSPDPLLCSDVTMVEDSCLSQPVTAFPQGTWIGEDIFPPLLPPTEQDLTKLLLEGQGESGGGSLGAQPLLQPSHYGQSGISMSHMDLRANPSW
Summary of the method: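 HaCaT cells stably carrying a NanoLuc reporter driven by the STAT6-responsive IL-13Ra2 promoter were preincubated with compounds for 2 h at 37 °C in 2% FBS medium. Cells were then stimulated with 0.12 nM IL-13 for 4 h, and luminescence was read after Nano-Glo substrate. Compounds ran as 11-point 4-fold dilutions in duplicate.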

[2] = tested on: CCL17 secretion in peripheral human whole blood; experiment: Human Whole Blood (HWB) CCL17 TR-FRET Assay (IL-13 stimulated CCL17 secretion); format: cell-based; conditions: Homo sapiens, 48 h, human whole blood, IL-13 stimulated
Summary of the method: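 TR-FRET sandwich immunoassay (665/615 nm ratio) read CCL17 in serum from heparinized whole blood after 16 h RT detection. Blood was exposed to compound for 2 h at 37 °C, then to 10 ng/mL IL-13 (final) for 48 h. IC50 from 11-point, 3-fold titrations in duplicate.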

Row | pEC50 [1] | pIC50 [2] | Structure (SMILES)
1 | 8.30 | 7.59 | CCn1nc(C(=O)NCc2ccc(NC(=O)N(C)C)nc2)c2c1[C@@H](C)CN(c1ccc(C(=O)N(C)C)cn1)C2 [Example 323, (S)-5-(5-(dimethylcarbamoyl)pyridin-2-yl)-N-((6-(3,3-dimethylureido)pyridin-3-yl)methyl)-1-ethyl-7-methyl-4,5,6,7-tetrahydro-1H-pyrazolo[4,3-c]pyridine-3-carboxamide]
2 | 8.30 | 7.74 | CCn1nc(C(=O)NCc2ccc(NC(=O)N(C)C)nc2)c2c1[C@@H](C)CN(c1ncc(C(=O)N(C)C)cn1)C2 [Example 324, (S)-5-(5-(dimethylcarbamoyl)pyrimidin-2-yl)-N-((6-(3,3-dimethylureido)pyridin-3-yl)methyl)-1-ethyl-7-methyl-4,5,6,7-tetrahydro-1H-pyrazolo[4,3-c]pyridine-3-carboxamide]
3 | 5.27 | < 4.69 | CNC(=O)Cc1ccc(N2CCc3c(c(C(=O)NCc4ccc(NC(=O)N(C)C)cc4)nn3C(C)C)C2)nc1 [Example 337, N-(4-(3,3-dimethylureido)benzyl)-1-isopropyl-5-(5-(2-(methylamino)-2-oxoethyl)pyridin-2-yl)-4,5,6,7-tetrahydro-1H-pyrazolo[4,3-c]pyridine-3-carboxamide]
4 | 5.51 | < 4.52 | CC(C)n1nc(C(=O)NCc2ccc(NC(=O)N(C)C)cc2)c2c1CCN(c1ccc(C3COC3)cn1)C2 [Example 338, N-(4-(3,3-Dimethylureido)benzyl)-1-isopropyl-5-(5-(oxetan-3-yl)pyridin-2-yl)-4,5,6,7-tetrahydro-1H-pyrazolo[4,3-c]pyridine-3-carboxamide]
5 | 6.56 | 5.63 | CC(C)n1nc(C(=O)NCc2ccc(NC(=O)N(C)C)cc2)c2c1[C@@H](C)CN(c1ncc(-c3nccn3C)cn1)C2 [Example 340, (S)-N-(4-(3,3-dimethylureido)benzyl)-1-isopropyl-7-methyl-5-(5-(1-methyl-1H-imidazol-2-yl)pyrimidin-2-yl)-4,5,6,7-tetrahydro-1H-pyrazolo[4,3-c]pyridine-3-carboxamide]
6 | 8.40 | 7.55 | CNC(=O)c1ccc(CNC(=O)c2nn(C(C)C)c3c2CN(c2ccc(C(=O)N(C)C)cn2)C[C@@H]3C)cc1 [Example 341, (S)-5-(5-(dimethylcarbamoyl)pyridin-2-yl)-1-isopropyl-7-methyl-N-(4-(methylcarbamoyl)benzyl)-4,5,6,7-tetrahydro-1H-pyrazolo[4,3-c]pyridine-3-carboxamide]
7 | 8.52 | 7.82 | CC(C)n1nc(C(=O)NCc2ccc(C(N)=O)cc2)c2c1[C@@H](C)CN(c1ccc(C(=O)N(C)C)cn1)C2 [Example 342, (S)-N-(4-carbamoylbenzyl)-5-(5-(dimethylcarbamoyl)pyridin-2-yl)-1-isopropyl-7-methyl-4,5,6,7-tetrahydro-1H-pyrazolo[4,3-c]pyridine-3-carboxamide]

More lines, now with the values behind:

Row | Structure (SMILES) | pEC50 [1] | pIC50 [2]
8 | CC(n1nc(C(=O)NCc2ccc(NC(=O)N(C)C)cc2)c2c1CCN(c1ccc(C(=O)N(C)C)cn1)C2)C(C)(C)C (centres unmarked) [Example 278, 1-(3,3-dimethylbutan-2-yl)-5-(5-(dimethylcarbamoyl)pyridin-2-yl)-N-(4-(3,3-dimethylureido)benzyl)-4,5,6,7-tetrahydro-1H-pyrazolo[4,3-c]pyridine-3-carboxamide] | 8.30 | 6.60
9 | CC(C)Cn1nc(C(=O)NCc2ccc(NC(=O)N(C)C)cc2)c2c1CCN(c1ccc(C(=O)N(C)C)cn1)C2 [Example 279, 5-(5-(dimethylcarbamoyl)pyridin-2-yl)-N-(4-(3,3-dimethylureido)benzyl)-1-isobutyl-4,5,6,7-tetrahydro-1H-pyrazolo[4,3-c]pyridine-3-carboxamide] | 8.05 | 7.03
10 | CCn1nc(C(=O)NCc2ccc(-c3ncc[nH]3)cc2)c2c1[C@@H](C)CN(c1ccc(C(=O)N(C)C)cn1)C2 [Example 283, (S)-N-(4-(1H-imidazol-2-yl)benzyl)-5-(5-(dimethylcarbamoyl)pyridin-2-yl)-1-ethyl-7-methyl-4,5,6,7-tetrahydro-1H-pyrazolo[4,3-c]pyridine-3-carboxamide] | 8.70 | 7.96
11 | CCn1nc(C(=O)NCc2ccc(C(=O)NC)cc2)c2c1[C@@H](C)CN(c1ccc(C(=O)N(C)C)cn1)C2 [Example 284, (S)-5-(5-(dimethylcarbamoyl)pyridin-2-yl)-1-ethyl-7-methyl-N-(4-(methylcarbamoyl)benzyl)-4,5,6,7-tetrahydro-1H-pyrazolo[4,3-c]pyridine-3-carboxamide] | 8.10 | 7.40
12 | CC(C)n1nc(C(=O)NCc2ccc(NC(=O)N(C)C)cc2)c2c1CCN(c1ccc(CC(=O)N(C)C)cn1)C2 [Example 286, 5-(5-(2-(Dimethylamino)-2-oxoethyl)pyridin-2-yl)-N-(4-(3,3-dimethylureido)benzyl)-1-isopropyl-4,5,6,7-tetrahydro-1H-pyrazolo[4,3-c]pyridine-3-carboxamide] | 6.18 | < 5.51
13 | CCn1nc(C(=O)NCc2ccc(-c3ncc[nH]3)cc2)c2c1[C@@H](C)CN(c1ncc(C(=O)N(C)C)cn1)C2 [Example 301, (S)-N-(4-(1H-imidazol-2-yl)benzyl)-5-(5-(dimethylcarbamoyl)pyrimidin-2-yl)-1-ethyl-7-methyl-4,5,6,7-tetrahydro-1H-pyrazolo[4,3-c]pyridine-3-carboxamide] | 9.00 | 8.10
14 | CCn1nc(C(=O)NCc2ccc(NC(=O)N(C)C)cn2)c2c1[C@@H](C)CN(c1ccc(C(=O)N(C)C)cn1)C2 [Example 302, (S)-5-(5-(dimethylcarbamoyl)pyridin-2-yl)-N-((5-(3,3-dimethylureido)pyridin-2-yl)methyl)-1-ethyl-7-methyl-4,5,6,7-tetrahydro-1H-pyrazolo[4,3-c]pyridine-3-carboxamide] | 8.22 | 8.05
15 | CCn1nc(C(=O)NCc2ccc(NC(=O)N(C)C)cn2)c2c1[C@@H](C)CN(c1ncc(C(=O)N(C)C)cn1)C2 [Example 305, (S)-5-(5-(dimethylcarbamoyl)pyrimidin-2-yl)-N-((5-(3,3-dimethylureido)pyridin-2-yl)methyl)-1-ethyl-7-methyl-4,5,6,7-tetrahydro-1H-pyrazolo[4,3-c]pyridine-3-carboxamide] | 8.30 | 8.15
16 | CCn1nc(C(=O)NCc2ccc(C(=O)NC)cc2)c2c1[C@@H](C)CN(c1ncc(C(=O)N(C)C)cn1)C2 [Example 306, (S)-5-(5-(dimethylcarbamoyl)pyrimidin-2-yl)-1-ethyl-7-methyl-N-(4-(methylcarbamoyl)benzyl)-4,5,6,7-tetrahydro-1H-pyrazolo[4,3-c]pyridine-3-carboxamide] | 8.15 | 7.48
17 | CN(C)C(=O)Nc1ccc(CNC(=O)c2nn(CCC#N)c3c2CN(c2ccc(C(=O)N(C)C)cn2)CC3)cc1 [Example 308, 1-(2-cyanoethyl)-5-(5-(dimethylcarbamoyl)pyridin-2-yl)-N-(4-(3,3-dimethylureido)benzyl)-4,5,6,7-tetrahydro-1H-pyrazolo[4,3-c]pyridine-3-carboxamide] | 6.54 | 6.14
18 | CN(C)C(=O)Nc1ccc(CNC(=O)c2nn(CCC(N)=O)c3c2CN(c2ccc(C(=O)N(C)C)cn2)CC3)cc1 [Example 309, 1-(3-amino-3-oxopropyl)-5-(5-(dimethylcarbamoyl)pyridin-2-yl)-N-(4-(3,3-dimethylureido)benzyl)-4,5,6,7-tetrahydro-1H-pyrazolo[4,3-c]pyridine-3-carboxamide] | 5.77 | 5.39
19 | CN(C)C(=O)Nc1ccc(CNC(=O)c2nn(C3(C(F)(F)F)CC3)c3c2CN(c2ccc(C(=O)N(C)C)cn2)CC3)cc1 [Example 320, 5-(5-(dimethylcarbamoyl)pyridin-2-yl)-N-(4-(3,3-dimethylureido)benzyl)-1-(1-(trifluoromethyl)cyclopropyl)-4,5,6,7-tetrahydro-1H-pyrazolo[4,3-c]pyridine-3-carboxamide] | 8.30 | 6.87
